Results reported in patent US20260041723A1, “BACTERIOPHAGE COMPOSITIONS FOR TREATING STAP[…]” (priority 2020, published 2026).

System: S. aureus strains
Type: cell-based
Details: resistant or intermediate strains, in the presence of AP-SA02
Procedure: Grey boxes indicate lines on graph depicted in FIG. 5B. […] Vancomycin, 16 μg/mL; AP-SA02, 0.1 pg/mL.
FIG. 6A is data showing bacterial growth measured by turbidity (absorbance at 600 nm) in the presence of AP-SA02 and vancomycin in a checkerboard assay. Grey boxes show lines on graph depicted in FIG. 6B. […] Vancomycin, 2 μg/mL.
Standard therapy for subjects with a S. aureus infection includes vancomycin and daptomycin. Since subjects who receive AP-SA02 are likely to be on these therapies, the effect of AP-SA02 on these antibiotics and vice versa was assessed. Using the standard checkerboard assay, the minimum inhibitory concentration of each antimicrobial alone or in combination with each other, was used to calculate whether two antimicrobials are synergistic, antagonistic, or indifferent (Table 3).

CN[C@H](CC(C)C)C(=O)N[C@H]1C(=O)N[C@@H](CC(N)=O)C(=O)N[C@H]2C(=O)N[C@H]3C(=O)N[C@H](C(=O)N[C@H](C(=O)O)c4cc(O)cc(O)c4-c4cc3ccc4O)[C@H](O)c3ccc(c(Cl)c3)Oc3cc2cc(c3O[C@@H]2O[C@H](CO)[C@@H](O)[C@H](O)[C@H]2O[C@H]2C[C@](C)(N)[C@H](O)[C@H](C)O2)Oc2ccc(cc2Cl)[C@H]1O [vancomycin]
breakpoint for vancomycin in the presence of phage: 0.5 to 2 µg/mL
